Results: ChEMBL document CHEMBL3400104, “Discovery of a potent, orally available dual CysLT₁ and CysLT₂ antagonist with dicarboxylic acid” (Bioorg Med Chem, 2015)

Legend:
[1] = molecular target: T1, Cysteinyl leukotriene receptor 2 (Homo sapiens, UniProt Q9NS75); assay: Antagonist activity at human CysLT2 receptor expressed in HEK293 cells assessed as inhibition of LTD4-inudced intracellular calcium influx preincubated for 30 mins before LTD4 addition by Fura2-AM assay; format: functional, cell-based
T1 sequence (Q9NS75 whole entry): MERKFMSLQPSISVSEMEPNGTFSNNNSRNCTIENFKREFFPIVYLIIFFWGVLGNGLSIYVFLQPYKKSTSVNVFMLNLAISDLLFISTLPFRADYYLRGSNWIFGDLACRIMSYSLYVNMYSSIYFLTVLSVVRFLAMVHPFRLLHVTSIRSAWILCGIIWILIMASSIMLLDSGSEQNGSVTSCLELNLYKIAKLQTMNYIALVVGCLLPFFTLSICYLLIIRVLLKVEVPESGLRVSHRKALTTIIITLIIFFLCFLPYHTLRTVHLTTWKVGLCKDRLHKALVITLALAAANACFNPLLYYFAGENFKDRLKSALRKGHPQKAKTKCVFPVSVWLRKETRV

[2] = Apparent permeability of the compound at pH 7.4 by PAMPA; format: physicochemical
[3] = Apparent permeability of the compound at pH 6.2 by PAMPA; format: physicochemical
[4] = molecular target: T2, Cysteinyl leukotriene receptor 1 (Homo sapiens, UniProt Q9Y271); assay: Antagonist activity at human CysLT1 receptor expressed in CHO cells assessed as inhibition of LTD4-inudced intracellular calcium influx preincubated for 30 mins before LTD4 addition by Fura2-AM assay; format: functional, cell-based
T2 sequence (Q9Y271 whole entry): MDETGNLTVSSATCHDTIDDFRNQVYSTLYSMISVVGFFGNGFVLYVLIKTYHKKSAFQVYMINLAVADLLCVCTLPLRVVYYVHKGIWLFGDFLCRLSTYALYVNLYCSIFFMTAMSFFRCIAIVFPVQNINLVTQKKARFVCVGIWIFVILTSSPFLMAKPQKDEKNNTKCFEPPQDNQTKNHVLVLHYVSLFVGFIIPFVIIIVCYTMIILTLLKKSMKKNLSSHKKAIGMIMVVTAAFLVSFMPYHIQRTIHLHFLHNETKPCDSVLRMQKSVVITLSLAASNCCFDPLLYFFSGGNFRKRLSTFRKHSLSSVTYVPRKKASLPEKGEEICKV

[5] = Apparent permeability across apical to basolateral or basolateral to apical side in human Caco2 cells at 1 uM after 2 hrs by LC/MS/MS analysis; format: ADME, cell-based; details: Caco-2
[6] = AUC in rat at 30 mg/kg, po; format: ADME, organism-based; parameters: dose 30 mg/kg, route oral; details: plasma
[7] = Half life in rat at 30 mg/kg, po; format: ADME, organism-based; parameters: dose 30 mg/kg, route oral; details: in vivo
[8] = Volume of distribution at steady state in rat at 1 mg/kg, iv; format: ADME, organism-based; parameters: dose 1 mg/kg, route intravenous; details: in vivo, read-out: Vdss
[9] = Half life in rat at 1 mg/kg, iv; format: ADME, organism-based; parameters: dose 1 mg/kg, route intravenous; details: in vivo
[10] = Clearance in rat at 1 mg/kg, iv; format: ADME, organism-based; parameters: dose 1 mg/kg, route intravenous; details: in vivo
[11] = Oral bioavailability in rat at 30 mg/kg; format: ADME, organism-based; details: in vivo
[12] = AUCinf in rat at 1 mg/kg, iv; format: ADME, organism-based; parameters: dose 1 mg/kg, route intravenous, time infinity; details: plasma
[13] = Cmax in rat at 30 mg/kg, po; format: ADME, organism-based; parameters: dose 30 mg/kg, route oral; details: in vivo
[14] = Oral bioavailability in rat at 10 mg/kg; format: ADME, organism-based; details: in vivo
[15] = Half life in rat at 10 mg/kg, po; format: ADME, organism-based; parameters: dose 10 mg/kg, route oral; details: in vivo
[16] = Cmax in rat at 10 mg/kg, po; format: ADME, organism-based; parameters: dose 10 mg/kg, route oral; details: in vivo
[17] = AUC in rat at 10 mg/kg, po; format: ADME, organism-based; parameters: dose 10 mg/kg, route oral; details: plasma
[18] = test system: Cavia porcellus; assay: In vivo inhibition of CysLT1 receptor in po dosed guinea pig assessed as reduction in LTD4-induced bronchoconstriction; format: functional, organism-based
[19] = test system: Cavia porcellus; assay: In vivo inhibition of CysLT1 receptor in guinea pig assessed as reduction in LTD4-induced bronchoconstriction at 3 mg/kg, po relative to vehicle treated control; format: functional

Row | SMILES | IC50 [1] [nM] | Papp [2] [×10⁻⁶ cm/s] | Papp [3] [×10⁻⁶ cm/s] | IC50 [4] [nM] | Papp at 2 h, 1 µM [5] [×10⁻⁶ cm/s] | AUC [6] [ng·h/mL] | half-life [7] [h] | Vd [8] [L/kg] | half-life [9] [h] | clearance [10] [mL/min/kg] | bioavailability [11] [%] | AUC(0-inf) [12] [ng·h/mL] | Cmax [13] [ng/mL] | bioavailability [14] [%] | half-life [15] [h] | Cmax [16] [ng/mL] | AUC [17] [ng·h/mL] | inhibition [18] | inhibition in vivo at 3 mg/kg [19] [%]
1 | O=C(O)CCCn1cc(C(=O)O)c(=O)c2c(/C=C/c3ccc(OCCCCOc4ccccc4)cc3)cccc21 | 370 | 12 | 13 | 250 | 13 | – | – | – | – | – | – | – | – | – | – | – | – | – | –
2 | O=C(O)CCCN1CC(C(=O)O)Oc2c(OCc3ccc(OCCCCc4ccccc4)cc3)cccc21 (stereo unspecified) | – | – | – | 58 | 0.74 | 48000 | 7.4 | 0.18 | 6 | 2.2 | 20 | 7900 | 5600 | – | – | – | – | – | –
3 | O=C(O)CCCN1CC(c2nnn[nH]2)Oc2c(CCc3ccc(OCCCCc4ccccc4)cc3)cccc21 (stereo unspecified) | 15 | – | – | 35 | 0.52 | – | – | 0.999 | 3.8 | 15 | – | 1200 | – | 15 | 2.9 | 400 | 1800 | – | –
4 | O=C(O)CCCN1CC(c2nnn[nH]2)Oc2c(NC(=O)c3ccc(OCCCCc4ccccc4)cc3)cccc21 (stereo unspecified) | 0.49 | – | – | 0.79 | 0.11 | 700 | 11 | 0.342 | 4 | 7.8 | 1 | 2100 | 40 | – | – | – | – | – | –
5 | CS(=O)(=O)NC(=O)C1CN(CCCC(=O)O)c2cccc(NC(=O)c3ccc(OCCCCc4ccccc4)cc3)c2O1 (stereo unspecified) | 16 | – | – | 22 | 0.06 | – | – | – | – | – | – | – | – | – | – | – | – | – | –
6 | O=C(O)CCCN1CCOc2c(NC(=O)c3ccc(OCCCCc4ccccc4)cc3)cccc21 | 4300 | – | – | 1900 | 0.17 | – | – | – | – | – | – | – | – | – | – | – | – | – | –
7 | O=C(O)CCCN1CC(c2nnn[nH]2)Oc2c(/C=C/c3ccc(OCCCCc4ccccc4)cc3)cccc21 (stereo unspecified) | 3.4 | – | – | 0.59 | 0.16 | – | – | – | – | – | – | – | – | – | – | – | – | – | –
8 | O=C(O)CCCn1cc(CC(=O)O)c2c(/C=C/c3ccc(OCCCCOc4ccccc4)cc3)cccc21 | – | – | – | – | – | – | – | 0.208 | 7.1 | 0.65 | – | 28000 | – | 100 | 4.7 | 33000 | 324000 | Dose-dependent effect | 45
9 | O=C(O)CCCN1CC(C(=O)O)Oc2c(/C=C/c3ccc(OCCCCc4ccccc4)cc3)cccc21 (stereo unspecified) | 5.7 | 0.1 | 1.1 | 70 | 1.3 | 203000 | 3.6 | 0.365 | 5.6 | 0.77 | 29 | 24000 | 21000 | – | – | – | – | – | –
10 | O=C(O)CCCN1CC(CO)Oc2c(NC(=O)c3ccc(OCCCCc4ccccc4)cc3)cccc21 (stereo unspecified) | 410 | – | – | 740 | 0.17 | – | – | – | – | – | – | – | – | – | – | – | – | – | –
11 | O=C(O)CCCN1CC(C(=O)NS(=O)(=O)c2ccccc2)Oc2c(NC(=O)c3ccc(OCCCCc4ccccc4)cc3)cccc21 (stereo unspecified) | 5.7 | – | – | 70 | 0.06 | – | – | – | – | – | – | – | – | – | – | – | – | – | –
12 | O=C(O)CCCOc1nc2cccc(/C=C/c3ccc(OCCCCOc4ccccc4)cc3)c2nc1C(=O)O | 75 | < 0.1 | 11 | 490 | 11 | – | – | – | – | – | – | – | – | – | – | – | – | – | –
13 | O=C(O)CCCN1CC(C(=O)O)Oc2c(NC(=O)c3ccc(OCCCCc4ccccc4)cc3)cccc21 (stereo unspecified) | – | – | – | – | 0.18 | – | 3.2 | 0.104 | – | – | – | 3500 | 210 | – | – | – | – | – | –
14 | O=C(O)CCCN1CC(C(=O)O)Oc2c(/C=C/c3ccc(OCCCCOc4ccccc4)cc3)cccc21 (stereo unspecified) | 0.31 | < 0.1 | 7.8 | 24 | 7.8 | – | – | – | – | – | – | – | – | – | – | – | – | – | –
15 | O=C(O)CCCN1CC(C(=O)O)Oc2c(CCc3ccc(OCCCCc4ccccc4)cc3)cccc21 (stereo unspecified) | 16 | – | – | 82 | 2.8 | 88000 | 2.5 | 1.46 | 6 | 4.8 | 79 | 3700 | 12000 | – | – | – | – | – | –
